Consider 32 compounds from US10538487B2, “Sulfonylureas and related compounds and use of same” (priority 2015, dated 2020).

Sequence of NLRP3 inflammasome (Q96P20 whole entry): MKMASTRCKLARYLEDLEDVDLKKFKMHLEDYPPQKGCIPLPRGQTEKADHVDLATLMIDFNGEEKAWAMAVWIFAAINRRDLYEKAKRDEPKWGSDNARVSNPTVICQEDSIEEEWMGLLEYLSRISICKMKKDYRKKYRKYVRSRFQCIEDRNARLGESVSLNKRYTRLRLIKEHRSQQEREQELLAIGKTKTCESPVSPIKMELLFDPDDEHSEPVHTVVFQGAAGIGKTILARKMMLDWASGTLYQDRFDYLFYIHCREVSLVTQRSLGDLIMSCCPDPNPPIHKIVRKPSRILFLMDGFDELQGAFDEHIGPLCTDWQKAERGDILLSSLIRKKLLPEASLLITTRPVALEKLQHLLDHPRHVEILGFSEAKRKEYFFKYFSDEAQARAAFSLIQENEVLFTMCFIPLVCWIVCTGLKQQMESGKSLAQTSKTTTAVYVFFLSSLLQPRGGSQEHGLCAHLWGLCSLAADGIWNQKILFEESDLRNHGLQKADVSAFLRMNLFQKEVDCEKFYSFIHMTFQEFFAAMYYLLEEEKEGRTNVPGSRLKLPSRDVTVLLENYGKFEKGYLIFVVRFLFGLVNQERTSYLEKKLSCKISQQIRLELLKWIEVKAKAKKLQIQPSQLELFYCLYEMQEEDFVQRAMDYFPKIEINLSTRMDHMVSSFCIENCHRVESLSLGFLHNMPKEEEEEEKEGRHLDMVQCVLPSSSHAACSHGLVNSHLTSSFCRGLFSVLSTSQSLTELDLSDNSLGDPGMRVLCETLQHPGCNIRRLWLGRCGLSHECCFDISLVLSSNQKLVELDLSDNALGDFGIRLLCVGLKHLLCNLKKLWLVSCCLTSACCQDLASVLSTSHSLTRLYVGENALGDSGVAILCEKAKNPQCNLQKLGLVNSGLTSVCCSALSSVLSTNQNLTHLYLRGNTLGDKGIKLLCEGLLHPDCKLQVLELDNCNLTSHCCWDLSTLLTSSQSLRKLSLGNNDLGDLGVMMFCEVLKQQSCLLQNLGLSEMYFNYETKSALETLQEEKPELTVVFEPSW

One series concerns the target NLRP3 inflammasome (Homo sapiens, UniProt Q96P20). Description: Inhibition of IL-1β release, NLRP3 inflammasome activation assay in HMDM. The format is cell-based. Particulars: commercial compounds (Table 9), read-out: HMDM IC50 vs NLRP3. The procedure: The following assays can be used to determine inhibitory activity of test compounds on the NLRP3 inflammasome using common stimuli such as adenosine triphosphate, nigericin, LeuLeu-OMe or monosodium urate crystals (MSU).
To generate HMDM, human monocytes are isolated from buffy coat blood using Ficoll-Plaque Plus (GE Healthcare) and density centrifugation. CD14^+ cell selection is performed using MACS magnetic beads (Miltenyl Biotec).
HMDM are seeded at 1×10^5/ml. […] Medium is removed and replaced with serum free medium (SFM) containing test compound 30 min prior to NLRP3 stimulation. […] ATP can be sourced from Sigma Aldrich, nigericin and MSU from Invivogen and LeuLeu-Ome from Chem-Impex International.
For ELISA and cell death assays cells are seeded in 96 well plates. Supernatants are removed and analysed using ELISA kits according to the manufacturer's instructions (DuoSet® R&D Systems, ReadySetGo!® eBioscience, BD OptEIA™, or Perkin Elmer AlphaLISA®). Cell death is assessed by measurement of LDH release relative to a 100% cell lysis control using the CytoTox96® non-radioactive cytotoxicity assay (Promega).
Turning to `CCC1=C(C)CN(C(=O)NCCc2ccc(S(N)(=O)=O)cc2)C1=O` [Glimespiride precursor, reference compound], the IC50 is greater than 200000 nM.
As for `COc1ccc2c(c1)C(=O)N(CCc1ccc(S(=O)(=O)NC(=O)NC3CCCCC3)cc1)C(=O)C2(C)C` [Gliquidone, N-(cyclohexylcarbamoyl)-4-(2-(7-methoxy-4,4-dimethyl-1,3-dioxo-3,4-dihydroisoquinolin-2(1H)-yl)ethyl)benzenesulfonamide, reference compound], the IC50 stood at 32000 nM.
On the same count and under the same terms, the result for `Cc1ccc(S(=O)(=O)NC(=O)NN2CCCCCC2)cc1` [Tolazamide, reference compound] reads greater than 200000 nM; that for `CCCCNC(=O)NS(=O)(=O)c1ccc(N)cc1` [Carbutamide, reference compound], greater than 200000 nM.

The same series, now with this note: inhibition of IL-1β release, class symbols, read-out: Avg. IL-1β IC50 HMDM.
In the case of `O=C(Nc1c2c(cc3c1CCC3)CCC2)NS(=O)(=O)c1ccc2c(c1)OCO2` [N-((1,2,3,5,6,7-hexahydro-s-indacen-4-yl)carbamoyl)benzo[d][1,3]dioxole-5-sulfonamide], the IC50 was less than 1000 nM.
The same measure, in the same setting: under `Cc1cc(S(=O)(=O)NC(=O)Nc2c3c(cc4c2CCC4)CCC3)nn1C` [N-((1,2,3,5,6,7-hexahydro-s-indacen-4-yl)carbamoyl)-1,5-dimethyl-1H-pyrazole-3-sulfonamide] stands less than 1000 nM; under `CC(C)c1cc(Cl)cc(C(C)C)c1NC(=O)NS(=O)(=O)c1cnc2ccccc2c1` [N-((4-chloro-2,6-diisopropylphenyl)carbamoyl)quinoline-3-sulfonamide], less than 100 nM; under `O=C(Nc1c2c(cc3c1CCC3)CCC2)NS(=O)(=O)c1cccc(C(=O)O)c1` [3-(N-((1,2,3,5,6,7-hexahydro-s-indacen-4-yl)carbamoyl)sulfamoyl)benzoic acid], less than 100 nM.
On the same count and under the same terms, the result for `[2H]C([2H])([2H])C(O)(c1cc(S(=O)(=O)NC(=O)Nc2c3c(cc4c2CCO4)CCC3)oc1C)C([2H])([2H])[2H]` [4-(2-hydroxypropan-2-yl-1,1,1,3,3,3-d6)-5-methyl-N-((3,5,6,7-tetrahydro-2H-indeno[5,6-b]furan-4-yl)carbamoyl)furan-2-sulfonamide] reads less than 100 nM; that for `O=C(CCc1cn(CCCNc2ccc([N+](=O)[O-])c3nonc23)nn1)Nc1cccc(S(=O)(=O)NC(=O)Nc2c3c(cc4c2CCC4)CCC3)c1` [N-(3-(N-((1,2,3,5,6,7-hexahydro-s-indacen-4-yl)carbamoyl)sulfamoyl)phenyl)-3-(1-(3-((7-nitrobenzo[c][1,2,5]oxadiazol-4-yl)amino)propyl)-1H-1,2,3-triazol-4-yl)propanamide], less than 10000 nM; that for `CCc1ccc(S(=O)(=O)NC(=O)Nc2c3c(cc4c2CCC4)CCC3)o1` [5-ethyl-N-((1,2,3,5,6,7-hexahydro-s-indacen-4-yl)carbamoyl)furan-2-sulfonamide], less than 1000 nM.
With `C#CCCC(=O)Nc1cccc(S(=O)(=O)NC(=O)Nc2c3c(cc4c2CCC4)CCC3)c1` [N-(3-(N-((1,2,3,5,6,7-hexahydro-s-indacen-4-yl)carbamoyl)sulfamoyl)phenyl)pent-4-ynamide], the IC50 was less than 1000 nM.
Still for that read-out and setting: the result for `COc1ccccc1S(=O)(=O)NC(=O)Nc1c2c(cc3c1CCC3)CCC2` [N-((1,2,3,5,6,7-hexahydro-s-indacen-4-yl)carbamoyl)-2-methoxybenzenesulfonamide] reads less than 1000 nM; that for `Cc1oc(S(=O)(=O)NC(=O)Nc2c(C(C)C)cccc2C(C)C)cc1C(C)(C)O` [N-((2,6-diisopropylphenyl)carbamoyl)-4-(2-hydroxypropan-2-yl)-5-methylfuran-2-sulfonamide], less than 100 nM.
Consider `[2H]C([2H])([2H])C(O)(c1cc(S(=O)(=O)NC(=O)Nc2c3c(cc4c2CCC4)CCC3)oc1C)C([2H])([2H])[2H]` [N-((1,2,3,5,6,7-hexahydro-s-indacen-4-yl)carbamoyl)-4-(2-hydroxypropan-2-yl-1,1,1,3,3,3-d6)-5-methylfuran-2-sulfonamide], for which the IC50 is less than 100 nM.
On to `O=C(Nc1c2c(cc3c1CCC3)CCC2)NS(=O)(=O)c1cnc2c(c1)CCC2` [N-((1,2,3,5,6,7-hexahydro-s-indacen-4-yl)carbamoyl)-6,7-dihydro-5H-cyclopenta[b]pyridine-3-sulfonamide], for which the IC50 was less than 100 nM.
Same read-out and setting: under `O=C(Nc1c2c(cc3c1OCC3)OCC2)NS(=O)(=O)c1cccc(C2(C(F)(F)F)N=N2)c1` [N-((2,3,6,7-tetrahydrobenzo[1,2-b:4,5-b′]difuran-4-yl)carbamoyl)-3-(3-(trifluoromethyl)-3H-diazirin-3-yl)benzenesulfonamide] stands less than 10000 nM; under `CC(C)(O)c1coc(S(=O)(=O)NC(=S)Nc2c3c(cc4c2CCC4)CCC3)c1` [N-((1,2,3,5,6,7-hexahydro-s-indacen-4-yl)carbamothioyl)-4-(2-hydroxypropan-2-yl)furan-2-sulfonamide], less than 1000 nM; under `O=C(Nc1c2c(cc3c1CCC3)CCC2)NS(=O)(=O)c1ccn(C2CCCCC2)n1` [1-cyclohexyl-N-((1,2,3,5,6,7-hexahydro-s-indacen-4-yl)carbamoyl)-1H-pyrazole-3-sulfonamide], less than 1000 nM.
Same read-out and setting: under `CC(C)c1cc(Cl)cc(C(C)C)c1NC(=O)NS(=O)(=O)c1cc(C(C)(C)O)co1` [sodium ((4-chloro-2,6-diisopropylphenyl)carbamoyl)((4-(2-hydroxypropan-2-yl)furan-2-yl)sulfonyl)amide] stands less than 100 nM.
The same measure, in the same setting: under `CN(C)Cc1ccc(S(=O)(=O)NC(=O)Nc2c3c(cc4c2CCC4)CCC3)o1` [5-((dimethylamino)methyl)-N-((1,2,3,5,6,7-hexahydro-s-indacen-4-yl)carbamoyl)furan-2-sulfonamide] stands less than 100 nM; under `Cn1nc(S(=O)(=O)NC(=O)Nc2c3c(cc4c2CCC4)CCC3)cc1C(F)(F)F` [N-((1,2,3,5,6,7-hexahydro-s-indacen-4-yl)carbamoyl)-1-methyl-5-(trifluoromethyl)-1H-pyrazole-3-sulfonamide], less than 1000 nM.
Consider `O=C(Nc1cccc2cccnc12)NS(=O)(=O)c1cccc(C2(C(F)(F)F)N=N2)c1` [N-(quinolin-8-ylcarbamoyl)-3-(3-(trifluoromethyl)-3H-diazirin-3-yl)benzenesulfonamide], for which the IC50 is less than 10000 nM.
Same read-out and setting: the result for `[2H]C([2H])([2H])C(O)(c1cc(S(=O)(=O)NC(=O)Nc2c3c(c(Br)c4c2OCC4)CCC3)oc1C)C([2H])([2H])[2H]` [N-((4-bromo-3,5,6,7-tetrahydro-2H-indeno[5,6-b]furan-8-yl)carbamoyl)-4-(2-hydroxypropan-2-yl-1,1,1,3,3,3-d6)-5-methylfuran-2-sulfonamide] reads less than 100 nM; that for `CC(C)c1cc(Cl)cc(C(C)C)c1NC(=O)NS(=O)(=O)c1ccc2ccccc2c1` [N-((4-chloro-2,6-diisopropylphenyl)carbamoyl)naphthalene-2-sulfonamide], less than 10000 nM.
The same measure, in the same setting: the result for `NC(=O)c1cccc(S(=O)(=O)NC(=O)Nc2c3c(cc4c2CCC4)CCC3)c1` [3-(N-(1,2,3,5,6,7-Hexahydro-s-indacen-4-ylcarbamoyl)sulfamoyl)benzamide] reads less than 1000 nM; that for `CC(c1ccccc1)n1ccc(S(=O)(=O)NC(=O)Nc2c3c(cc4c2CCC4)CCC3)n1` (stereo not shown) [N-((1,2,3,5,6,7-hexahydro-s-indacen-4-yl)carbamoyl)-1-(1-phenylethyl)-1H-pyrazole-3-sulfonamide], less than 1000 nM.
On the same count and under the same terms, under `CC(C)c1cc(Cl)cc(C(C)C)c1NC(=O)NS(=O)(=O)c1cccc2ncccc12` [N-((4-chloro-2,6-diisopropylphenyl)carbamoyl)quinoline-5-sulfonamide] stands less than 1000 nM; under `CC(C)c1cc(Cl)cc(C(C)C)c1NC(=O)NS(=O)(=O)c1cc(C(C)(C)O)n(C)n1` [sodium ((4-chloro-2,6-diisopropylphenyl)carbamoyl)((5-(2-hydroxypropan-2-yl)-1-methyl-1H-pyrazol-3-yl)sulfonyl)amide], less than 100 nM; under `CC(C)(O)c1coc(S(=O)(=O)NC(=O)Nc2cccc3cccnc23)c1` [4-(2-hydroxypropan-2-yl)-N-(quinolin-8-ylcarbamoyl)furan-2-sulfonamide], less than 10000 nM.
`CN(C)c1ccc2c(CC(=O)NCCc3ccc(S(=O)(=O)NC(=O)Nc4c5c(cc6c4CCC6)CCC5)cc3)cc(=O)oc2c1` [2-(7-(Dimethylamino)-2-oxo-2H-chromen-4-yl)-N-(4-(N-(1,2,3,5,6,7-hexahydro-s-indacen-4-ylcarbamoyl)sulfamoyl)phenethyl)acetamide]: the IC50 was less than 1000 nM.

Test system in the next series: not listed separately
Description: Single dose pharmacokinetic study in mice (iv 4 mg/Kg, po 20 mg/Kg), plasma concentration post-dosing. The format is in vivo, mouse. Conditions: mice, iv dose of 4 mg/Kg and po dose of 20 mg/Kg. The procedure:
This is advantageous leading to comparatively lower doses or less frequent administration. The procedure followed was: Male C57BL/6 mice were used at 7-9 weeks age with 3 animals per group. Mice were dosed with test compound using single intravenous bolus or oral gavage. Blood samples were taken via submandibular or saphenous vein for analysis of plasma concentrations of compound by LC-MS/MS at the following timepoints: IV (3 mice): 0.083, 0.25, 0.5, 1, 2, 4, 8 and 24 hours post dosing, PO (3 mice): 0.25, 0.5, 1, 2, 4, 8 and 24 hours post dosing. LC-MS/MS method for the quantitative determination of test compound in corresponding biological matrix was developed. […] The results are shown graphically in FIGS. 1A to 1C (MCC950) and FIGS. 2A to 2C (MCC7840).
Consider `CC(C)n1ccc(S(=O)(=O)NC(=O)Nc2c3c(cc4c2CCC4)CCC3)n1` [MCC7840, N-((1,2,3,5,6,7-hexahydro-s-indacen-4-yl)carbamoyl)-1-isopropyl-1H-pyrazole-3-sulfonamide], for which the “area under the curve (AUC) in comparison to MCC950” value is reported as “increased”, the “half-life in comparison to MCC950” value is “extended half-life” and the “maximum concentration (Cmax) in comparison to MCC950” value is “increased maximum concentration (Cmax)”.

A word on the IC50: it is the midpoint of a concentration-inhibition curve.
